Common to all, as to assay type: cell-based
The target of one assay is T1, PTHR1 (Homo sapiens, UniProt Q03431).
T1 sequence (Q03431 27-593): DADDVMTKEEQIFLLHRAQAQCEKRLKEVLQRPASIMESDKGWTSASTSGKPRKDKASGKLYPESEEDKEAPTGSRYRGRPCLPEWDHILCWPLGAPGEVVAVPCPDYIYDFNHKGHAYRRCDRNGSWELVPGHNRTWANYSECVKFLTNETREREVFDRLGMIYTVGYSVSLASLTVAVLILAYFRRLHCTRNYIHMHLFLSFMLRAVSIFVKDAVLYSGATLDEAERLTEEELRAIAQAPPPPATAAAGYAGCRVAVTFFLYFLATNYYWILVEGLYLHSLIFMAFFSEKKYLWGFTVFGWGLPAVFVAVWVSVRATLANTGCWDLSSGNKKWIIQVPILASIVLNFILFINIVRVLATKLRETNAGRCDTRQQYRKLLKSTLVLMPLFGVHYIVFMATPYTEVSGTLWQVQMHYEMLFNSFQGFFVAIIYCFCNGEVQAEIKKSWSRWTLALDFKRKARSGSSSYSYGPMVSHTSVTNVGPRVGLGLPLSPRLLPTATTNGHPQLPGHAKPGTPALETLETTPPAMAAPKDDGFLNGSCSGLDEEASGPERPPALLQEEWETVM
Put plainly: PTHR1 activation, cAMP production (GloSensor) in HEK293 cells. Also noted: expressed in transfected cells. Conditions: for PTHR1 Activation: Derivative EC50/PTH EC50: normalized to EC50 of PTH(1-34)-NH2 ([…]), cAMP production. From the text:
The assays employ HEK-293 cells that have been engineered to express the appropriate receptor. GloSensor-based detection of cAMP provides a read-out of receptor activation.
For PTHR1 activation and all the binding data, data represent mean±s.e.m from three independent measurements; For PTHR2 activation, data represent mean±s.e.m from four independent measurements. Curves were fit to the data using a four-parameter sigmoidal dose-response equation.
For cAMP dose-response assays, monolayers of confluent HEK 293 cells were pre-incubated with buffer containing d-luciferin (0.5 mM) in 96 well plates at room temperature until a stable baseline level of luminescence was established (30 min). Varying concentrations of agonist were then added, and the time course of luminescence response was recorded using a Perkin Elmer plate reader following α/β-peptide addition.

In the next assay the test system is PTHR1 and PTHR2. Put plainly: Tolerance pattern of β residues for PTHR1 and PTHR2 activation. Further details: key: “*” denotes potent PTHR1-selective agonism; “#” denotes potent PTHR2-selective agonism; “*#” denotes potent agonism of both PTHR1 and PTHR2. Conditions: PTHR1 vs PTHR2 agonism. From the text: Enhanced selectivity via double α→β replacement.
Another assay addresses PTHR2 (Homo sapiens, UniProt P49190). Put plainly: PTHR2 activation, cAMP production (GloSensor) in HEK293 cells. Conditions: for EC50: HEK-293 cells, GloSensor cAMP, read-out: EC50 (nM) of PTHR2 Activation; for PTHR2 Activation: Derivative EC50/PTH EC50: normalized to EC50 of PTH(1-34)-NH2 ([…] printed), cAMP production. Further details: expressed in transfected cells; key to PTHR2 Activation: Derivative EC50/PTH EC50: *** denotes poor tolerance of β amino acid for PTHR2 activation. From the text:
The assays employ HEK-293 cells that have been engineered to express the appropriate receptor. GloSensor-based detection of cAMP provides a read-out of receptor activation. […] (Carter, P. H. et al. Actions of the Small Molecule Ligands SW106 and AH-3960 on the Type-1 Parathyroid Hormone Receptor. Molecular Endocrinology 29, 307-321 (2015).)
FIGS. 10A and 10B depict dose-response curves of PTHR1 activation (FIG. 10A) and PTHR2 activation (FIG. 10B) in HEK293 cells stably expressing PTHR1 or PTHR2. For PTHR1 activation and all the binding data, data represent mean±s.e.m from three independent measurements; For PTHR2 activation, data represent mean±s.e.m from four independent measurements. Curves were fit to the data using a four-parameter sigmoidal dose-response equation.

The mark [1] stands for this setting: HEK-293 cells, GloSensor cAMP, read-out: EC50 (nM) of PTHR1 Activation.
[2] abbreviates: Table 8, hPTHR1, read-out: PTHR1 EC50.

Like-named read-outs stand apart in the source and are kept apart here. Starred links: 1 amine or outer side, 2 acyl side, 3 side chain; linkers in the order of their positions; H or OH if unused. Non-standard residues stand in square brackets, D forms with d. Residues, ends and D or L forms follow the SMILES beside them. X4 = O=C(O)CC[C@@H](CN[*:1])C(=O)[*:2]

Sequence of PTHR2 (P49190 25-550): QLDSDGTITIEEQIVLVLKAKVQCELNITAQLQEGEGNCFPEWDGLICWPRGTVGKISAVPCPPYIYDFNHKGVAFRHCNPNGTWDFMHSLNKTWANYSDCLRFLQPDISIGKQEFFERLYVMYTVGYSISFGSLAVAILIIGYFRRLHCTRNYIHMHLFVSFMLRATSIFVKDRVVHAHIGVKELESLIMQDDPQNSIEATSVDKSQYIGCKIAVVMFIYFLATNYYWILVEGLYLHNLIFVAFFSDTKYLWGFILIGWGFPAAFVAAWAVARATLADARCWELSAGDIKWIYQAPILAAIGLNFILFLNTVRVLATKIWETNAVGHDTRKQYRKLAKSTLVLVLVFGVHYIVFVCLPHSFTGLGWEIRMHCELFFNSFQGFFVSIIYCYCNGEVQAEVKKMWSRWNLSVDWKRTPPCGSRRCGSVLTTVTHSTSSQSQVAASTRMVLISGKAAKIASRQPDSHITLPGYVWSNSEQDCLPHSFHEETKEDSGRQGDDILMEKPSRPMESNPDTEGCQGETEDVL

`CC[C@H](C)[C@H](NC(=O)[C@H](CCC(=O)O)NC(=O)[C@H](CO)NC(=O)[C@@H](CNC(=O)[C@@H](N)CO)C(C)C)C(=O)N[C@@H](CCC(N)=O)C(=O)N[C@@H](CC(C)C)C(=O)N[C@@H](CCSC)C(=O)N[C@@H](Cc1c[nH]cn1)C(=O)N[C@@H](CC(N)=O)C(=O)N[C@@H](CC(C)C)C(=O)NCC(=O)N[C@@H](CCCCN)C(=O)N[C@@H](Cc1c[nH]cn1)C(=O)N[C@@H](CC(C)C)C(=O)N[C@@H](CC(N)=O)C(=O)N[C@@H](CO)C(=O)N[C@@H](CCSC)C(=O)N[C@@H](CCC(=O)O)C(=O)N[C@@H](CCCNC(=N)N)C(=O)N[C@H](C(=O)N[C@@H](CCC(=O)O)C(=O)N[C@@H](Cc1c[nH]c2ccccc12)C(=O)N[C@@H](CC(C)C)C(=O)N[C@@H](CCCNC(=N)N)C(=O)N[C@@H](CCCCN)C(=O)N[C@@H](CCCCN)C(=O)N[C@@H](CC(C)C)C(=O)N[C@@H](CCC(N)=O)C(=O)N[C@@H](CC(=O)O)C(=O)N[C@H](C(=O)N[C@@H](Cc1c[nH]cn1)C(=O)N[C@@H](CC(N)=O)C(=O)N[C@@H](Cc1ccccc1)C(N)=O)C(C)C)C(C)C` [SEQ. ID. NO: 23]: the EC50 on PTHR1 (setting [1]) was 4.47 ± 0.47 nM. At PTHR1, the “PTHR1 Activation: Derivative EC50/PTH EC50” value was determined as 11.76. Also, the “Tolerance Pattern of β AA” value in the assay with PTHR1 and PTHR2 is on record as “#”.

In the case of `CC[C@H](C)[C@H](NC(=O)[C@H](CCC(=O)O)NC(=O)[C@H](CO)NC(=O)[C@H](CNC(=O)[C@@H](N)CO)C(C)C)C(=O)N[C@@H](CCC(N)=O)C(=O)N[C@@H](CC(C)C)C(=O)N[C@@H](CCSC)C(=O)N[C@@H](Cc1c[nH]cn1)C(=O)N[C@@H](CC(N)=O)C(=O)N[C@@H](CC(C)C)C(=O)NCC(=O)N[C@@H](CCCCN)C(=O)N[C@@H](Cc1c[nH]cn1)C(=O)N[C@@H](CC(C)C)C(=O)N[C@@H](CC(N)=O)C(=O)N[C@@H](CO)C(=O)N[C@@H](CCSC)C(=O)N[C@@H](CCC(=O)O)C(=O)N[C@@H](CCCNC(=N)N)C(=O)N[C@H](C(=O)N[C@@H](CCC(=O)O)C(=O)N[C@@H](Cc1c[nH]c2ccccc12)C(=O)N[C@@H](CC(C)C)C(=O)N[C@@H](CCCNC(=N)N)C(=O)N[C@@H](CCCCN)C(=O)N[C@@H](CCCCN)C(=O)N[C@@H](CC(C)C)C(=O)N[C@@H](CCC(N)=O)C(=O)N[C@@H](CC(=O)O)C(=O)N[C@H](C(=O)N[C@@H](Cc1c[nH]cn1)C(=O)N[C@@H](CC(N)=O)C(=O)N[C@@H](Cc1ccccc1)C(N)=O)C(C)C)C(C)C` [SEQ. ID. NO: 31], the results for the concentration for a half-maximal effect (EC50) on PTHR2, at PTHR1 (setting [1]) and on PTHR1 (setting [2]) were 4.72 ± 1.04 nM, 6.97 ± 1 nM and 4.72 ± 1.04 nM, respectively. Besides, the “PTHR2 Activation: Derivative EC50/PTH EC50” value on PTHR2 came to 5.43. Further, on PTHR1, the “PTHR1 Activation: Derivative EC50/PTH EC50” value turned out to be 18.34.

For `CC[C@H](C)[C@H](NC(=O)[C@@H](CCC(=O)O)CNC(=O)[C@H](CO)NC(=O)[C@@H](NC(=O)[C@@H](N)CO)C(C)C)C(=O)N[C@@H](CCC(N)=O)C(=O)N[C@@H](CC(C)C)C(=O)N[C@@H](CCSC)C(=O)N[C@@H](Cc1c[nH]cn1)C(=O)N[C@@H](CC(N)=O)C(=O)N[C@@H](CC(C)C)C(=O)NCC(=O)N[C@@H](CCCCN)C(=O)N[C@@H](Cc1c[nH]cn1)C(=O)N[C@@H](CC(C)C)C(=O)N[C@@H](CC(N)=O)C(=O)N[C@@H](CO)C(=O)N[C@@H](CCSC)C(=O)N[C@@H](CCC(=O)O)C(=O)N[C@@H](CCCNC(=N)N)C(=O)N[C@H](C(=O)N[C@@H](CCC(=O)O)C(=O)N[C@@H](Cc1c[nH]c2ccccc12)C(=O)N[C@@H](CC(C)C)C(=O)N[C@@H](CCCNC(=N)N)C(=O)N[C@@H](CCCCN)C(=O)N[C@@H](CCCCN)C(=O)N[C@@H](CC(C)C)C(=O)N[C@@H](CCC(N)=O)C(=O)N[C@@H](CC(=O)O)C(=O)N[C@H](C(=O)N[C@@H](Cc1c[nH]cn1)C(=O)N[C@@H](CC(N)=O)C(=O)N[C@@H](Cc1ccccc1)C(N)=O)C(C)C)C(C)C` [SEQ. ID. NO: 33] (H-SVS[X4]IQLMHNLGKHLNSMERVEWLRKKLQDVHNF-NH2; N-terminus assumed), the results for the EC50 at PTHR2, at PTHR1 (setting [1]) and at PTHR1 (setting [2]) were > 100 nM, 10.8 ± 0.47 nM and > 100 nM, respectively. In addition, the “PTHR2 Activation: Derivative EC50/PTH EC50” value on PTHR2 is reported as “***”. The “PTHR1 Activation: Derivative EC50/PTH EC50” value on PTHR1 was determined as 28.42.

In the case of `CC[C@H](C)[C@H](NC(=O)[C@H](CCC(=O)O)NC(=O)[C@H](CO)NC(=O)C[C@@H](NC(=O)[C@@H](N)CO)C(C)C)C(=O)N[C@@H](CCC(N)=O)C(=O)N[C@@H](CC(C)C)C(=O)N[C@@H](CCSC)C(=O)N[C@@H](Cc1c[nH]cn1)C(=O)N[C@@H](CC(N)=O)C(=O)N[C@@H](CC(C)C)C(=O)NCC(=O)N[C@@H](CCCCN)C(=O)N[C@@H](Cc1c[nH]cn1)C(=O)N[C@@H](CC(C)C)C(=O)N[C@@H](CC(N)=O)C(=O)N[C@@H](CO)C(=O)N[C@@H](CCSC)C(=O)N[C@@H](CCC(=O)O)C(=O)N[C@@H](CCCNC(=N)N)C(=O)N[C@H](C(=O)N[C@@H](CCC(=O)O)C(=O)N[C@@H](Cc1c[nH]c2ccccc12)C(=O)N[C@@H](CC(C)C)C(=O)N[C@@H](CCCNC(=N)N)C(=O)N[C@@H](CCCCN)C(=O)N[C@@H](CCCCN)C(=O)N[C@@H](CC(C)C)C(=O)N[C@@H](CCC(N)=O)C(=O)N[C@@H](CC(=O)O)C(=O)N[C@H](C(=O)N[C@@H](Cc1c[nH]cn1)C(=O)N[C@@H](CC(N)=O)C(=O)N[C@@H](Cc1ccccc1)C(N)=O)C(C)C)C(C)C` [SEQ. ID. NO: 39], the “Tolerance Pattern of β AA” value in the assay on PTHR1 and PTHR2 was “*#”.

Consider `CC[C@H](C)[C@H](NC(=O)[C@H](CCC(=O)O)NC(=O)C[C@H](CO)NC(=O)[C@@H](NC(=O)[C@@H](N)CO)C(C)C)C(=O)N[C@@H](CCC(N)=O)C(=O)N[C@@H](CC(C)C)C(=O)N[C@@H](CCSC)C(=O)N[C@@H](Cc1c[nH]cn1)C(=O)N[C@@H](CC(N)=O)C(=O)N[C@@H](CC(C)C)C(=O)NCC(=O)N[C@@H](CCCCN)C(=O)N[C@@H](Cc1c[nH]cn1)C(=O)N[C@@H](CC(C)C)C(=O)N[C@@H](CC(N)=O)C(=O)N[C@@H](CO)C(=O)N[C@@H](CCSC)C(=O)N[C@@H](CCC(=O)O)C(=O)N[C@@H](CCCNC(=N)N)C(=O)N[C@H](C(=O)N[C@@H](CCC(=O)O)C(=O)N[C@@H](Cc1c[nH]c2ccccc12)C(=O)N[C@@H](CC(C)C)C(=O)N[C@@H](CCCNC(=N)N)C(=O)N[C@@H](CCCCN)C(=O)N[C@@H](CCCCN)C(=O)N[C@@H](CC(C)C)C(=O)N[C@@H](CCC(N)=O)C(=O)N[C@@H](CC(=O)O)C(=O)N[C@H](C(=O)N[C@@H](Cc1c[nH]cn1)C(=O)N[C@@H](CC(N)=O)C(=O)N[C@@H](Cc1ccccc1)C(N)=O)C(C)C)C(C)C` [SEQ. ID. NO: 40], for which the “Tolerance Pattern of β AA” value in the assay with PTHR1 and PTHR2 was “#”.

In the case of `CC[C@H](C)[C@H](NC(=O)[C@H](CCC(=O)O)NC(=O)[C@H](CO)NC(=O)[C@@H](NC(=O)[C@@H](N)CO)C(C)C)C(=O)N[C@@H](CCC(N)=O)C(=O)N[C@@H](CC(C)C)C(=O)N[C@@H](CCSC)CC(=O)N[C@@H](Cc1cnc[nH]1)C(=O)N[C@@H](CC(N)=O)C(=O)N[C@@H](CC(C)C)C(=O)NCC(=O)N[C@@H](CCCCN)C(=O)N[C@@H](Cc1cnc[nH]1)C(=O)N[C@@H](CC(C)C)C(=O)N[C@@H](CC(N)=O)C(=O)N[C@@H](CO)C(=O)N[C@@H](CCSC)C(=O)N[C@@H](CCC(=O)O)C(=O)N[C@@H](CCCNC(=N)N)C(=O)N[C@H](C(=O)N[C@@H](CCC(=O)O)C(=O)N[C@@H](Cc1c[nH]c2ccccc12)C(=O)N[C@@H](CC(C)C)C(=O)N[C@@H](CCCNC(=N)N)C(=O)N[C@@H](CCCCN)C(=O)N[C@@H](CCCCN)C(=O)N[C@@H](CC(C)C)C(=O)N[C@@H](CCC(N)=O)C(=O)N[C@@H](CC(=O)O)C(=O)N[C@H](C(=O)N[C@@H](Cc1cnc[nH]1)C(=O)N[C@@H](CC(N)=O)C(=O)N[C@@H](Cc1ccccc1)C(N)=O)C(C)C)C(C)C` [SEQ. ID. NO: 45], the values for the EC50 on PTHR2 and at PTHR1 (setting [1]) were > 100 nM and 21 ± 2.3 nM, respectively.
